# Measured values reported in patent publication US5089401A, “Method for the preparation of fructose-containing oligosaccharide” (Ensuiko Sugar Refining Co., Ltd., priority 1990, dated 1992).
# Target: T1, β-fructofuranosidase (Microbacterium saccharophilum, UniProt Q8VW87)
# T1 construct: K-1 culture; crude supernatant or purified preparation
# T1 sequence (Q8VW87 37-578): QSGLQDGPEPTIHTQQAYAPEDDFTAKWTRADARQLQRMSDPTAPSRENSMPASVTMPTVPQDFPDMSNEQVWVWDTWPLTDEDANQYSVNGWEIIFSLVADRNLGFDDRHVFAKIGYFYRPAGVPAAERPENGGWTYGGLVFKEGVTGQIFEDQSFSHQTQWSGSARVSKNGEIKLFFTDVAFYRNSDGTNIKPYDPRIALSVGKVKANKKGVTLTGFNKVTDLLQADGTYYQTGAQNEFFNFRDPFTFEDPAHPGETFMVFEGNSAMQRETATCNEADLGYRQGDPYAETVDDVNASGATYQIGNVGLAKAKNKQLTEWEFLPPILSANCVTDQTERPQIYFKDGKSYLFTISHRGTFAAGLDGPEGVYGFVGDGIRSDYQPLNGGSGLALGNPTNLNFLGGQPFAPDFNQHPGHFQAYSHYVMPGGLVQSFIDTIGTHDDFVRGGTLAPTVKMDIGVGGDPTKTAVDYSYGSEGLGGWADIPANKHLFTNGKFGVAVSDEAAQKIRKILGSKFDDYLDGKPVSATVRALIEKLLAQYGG
# Assay: decomposition of saccharides by the β-fructofuranosidase (substrate specificity)
# Format: biochemical, Arthrobacter sp. K-1
# Conditions: not given
row,Compound,activity of the enzyme in the decomposition of the saccharide
1,"OC[C@H]1O[C@@](CO)(O[C@H]2O[C@H](CO)[C@@H](O[C@H]3O[C@H](CO)[C@@H](O)[C@H](O)[C@H]3O)[C@H](O)[C@H]2O)[C@@H](O)[C@@H]1O [elrose, maltosyl fructoside]",active in the decomposition
2,OC[C@H]1O[C@@](CO)(O[C@H]2O[C@H](CO)[C@@H](O)[C@H](O)[C@H]2O)[C@@H](O)[C@@H]1O [sucrose],active in the decomposition
3,"OC[C@H]1O[C@@](CO)(O[C@H]2OC[C@@H](O)[C@H](O)[C@H]2O)[C@@H](O)[C@@H]1O [xylsucrose, O-β-D-fructofuranosyl-(2→1)-O-α-D-xylopyranoside]",active in the decomposition
4,OC[C@H]1O[C@@](CO)(OC[C@H]2O[C@H](O[C@]3(CO)O[C@H](CO)[C@@H](O)[C@@H]3O)[C@H](O)[C@@H](O)[C@@H]2O)[C@@H](O)[C@@H]1O [neokestose],active in the decomposition
5,inulobiose,hardly exhibits activity
6,OC[C@H]1O[C@H](OC[C@H]2O[C@H](O[C@]3(CO)O[C@H](CO)[C@@H](O)[C@@H]3O)[C@H](O)[C@@H](O)[C@@H]2O)[C@H](O)[C@@H](O)[C@H]1O [raffinose],active in the decomposition
7,OC[C@H]1O[C@H](OC[C@H]2O[C@H](OC[C@H]3O[C@H](O[C@]4(CO)O[C@H](CO)[C@@H](O)[C@@H]4O)[C@H](O)[C@@H](O)[C@@H]3O)[C@H](O)[C@@H](O)[C@H]2O)[C@H](O)[C@@H](O)[C@H]1O [stachyose],active in the decomposition
8,OC[C@H]1O[C@@](CO)(OC[C@H]2O[C@](O)(CO)[C@@H](O)[C@@H]2O)[C@@H](O)[C@@H]1O [levan biose],hardly exhibits activity
9,OC[C@H]1O[C@@](CO)(OC[C@@]2(O[C@H]3O[C@H](CO)[C@@H](O)[C@H](O)[C@H]3O)O[C@H](CO)[C@@H](O)[C@@H]2O)[C@@H](O)[C@@H]1O [1-kestose],hardly exhibits activity
10,OC[C@H]1O[C@@](CO)(OC[C@@]2(OC[C@@]3(O[C@H]4O[C@H](CO)[C@@H](O)[C@H](O)[C@H]4O)O[C@H](CO)[C@@H](O)[C@@H]3O)O[C@H](CO)[C@@H](O)[C@@H]2O)[C@@H](O)[C@@H]1O [nistose],hardly exhibits activity

# Target: T1, β-fructofuranosidase
# Assay: not given
# Format: biochemical, Arthrobacter sp. K-1
# Conditions: not given
row,Compound,inhibitive effect of the ion on the enzyme
1,zinc,susceptible to the inhibitive effect
2,copper,susceptible to the inhibitive effect
3,mercury,susceptible to the inhibitive effect
4,silver,susceptible to the inhibitive effect

# Tested on: bifidus bacteria
# Assay: not given
# Conditions: cited from earlier work
row,Compound,activity as a growth factor of bifidus bacteria
1,"OC[C@H]1O[C@@H](O[C@H]2[C@H](O)[C@@H](O)[C@@H](O[C@]3(CO)O[C@H](CO)[C@@H](O)[C@@H]3O)O[C@@H]2CO)[C@H](O)[C@@H](O)[C@H]1O [lactosucrose, O-β-D-galactopyranosyl-(1→4)-O-α-D-glucopyranosyl-(1→2)-O-β-D-fructofuranoside]",has an activity as a growth factor of bifidus bacteria
